Experimental findings from patent US11478445B2, “Method for treating acute myeloid leukemia” (Bionomics Limited, priority 2017, dated 2022) are described below.

Format in all cases: cell-based
The subject of one data set is P-JNK^Thr183/Tyr185. As to the kind of experiment: Western blot for P-JNK in AML cell lines. The note with it: all cell lines, 8 h, 10 nM and 100 nM. The protocol:
Cells were harvested (4×10^6 for cell lines and 7×10^6 for L-AMLs) and washed 3 times with cold PBS (centrifuged at 4° C.). Lysis buffer was prepared with NP40 Cell Lysis Buffer (ThermoFisher Scientific), cOmplete protease inhibitor (Roche, 046993116001), PhosStop (Roche, 04906837001) and Pefablock (Roche, 11585916001) at the recommended concentrations. After the washes, cells were resuspended in 50 μL of lysis buffer, vortexed and incubated on ice for 30 min. Samples were vortexed every 10 min. After 30 min incubation, samples were centrifuged at 14,000 g at 4° C. for 10 min and supernatants were transferred to tubes. Protein was quantified using the DC Protein Assay kit (BioRad) per manufacturer's protocol. 50 μg of cell lines lysate or 20 μg of L-AML6 lysate were loaded for SDS-PAGE. Protein was transferred from the gels into PVDF membranes using a semi dry transfer apparatus (BioRad). […]
Once it was determined that this group of AML cell lines are highly sensitive to EX 1, the mechanism underlying this response was investigated. […]
Therefore, cells were treated with a range of doses of EX 1 for 8 h and 24 h, as described above, before protein extraction was performed. […] Noxa was readily detected in control lysate prepared from HEK293 cells.

For data set [1], the system named is AML cell lines. As to the kind of experiment: Mitochondria O2.- assay (MitoSox, flow cytometry). The method, then:
1.25×10^5 cells were harvested into 5 mL tubes and washed with PBS. Cell pellets were resuspended in 180 μL of PBS and 20 μL of freshly prepared 5 mM MitoSox (Molecular Probes, M36008) solution added to each tube. All tubes were incubated at 37° C. for 20 min and then cells washed 3 times with PBS. Cells were resuspended in 300 μL PBS and analysed on an LSRFortessa (BD Biosciences) flow cytometer. Results were analysed with FCS Express 4 Flow Research Edition software (De Novo Software).
For that, cells were plated at 10^6 cells/mL and treated with vehicle (DMSO) alone or a range of doses of EX 1 (0.1 nM, 1 nM, 10 nM and 100 nM) for 6 h, 8 h and 24 h. Cells were harvested for detection of ROS and superoxide anion (O2^·−) levels at 6 h and 24 h, for protein extraction at 8 h and 24 h, and for cell cycle analysis at 24 h.
Total ROS levels were measured by flow cytometry using the fluorogenic dye CM-H2DCFDA at a final concentration of 5 μM. Mitochondria superoxide anion (O2^·−) levels were measured by flow cytometry using MitoSox, also at a final concentration of 5 μM.

The subject of data set [2] is AML cell lines. As to the kind of experiment: Cytotoxicity (CellTox Green) and viability/proliferation (CellTiter-Blue) assays. The method, then: The cell lines were plated in 96-well plates (black with clear flat bottom, Costar, 3603) at 2×10^4 cells/well in 50 uL of respective media, containing 0.1% DMSO and CellTox Green reagent (Promega, G8742) at a final dilution of 1/500. Cells were plated in triplicate wells for each dose being tested. EX 1 was reconstituted immediately prior to use at 10 mM in DMSO. The drug was prepared 2× concentrated in media containing 0.1% DMSO and 50 uL added to respective wells. Fluorescence (485-500 nmEx/520-530 nmEm) was measured at 24 h and 48 h with a FLOUstar OPTIMA plate reader (BMG Labtech). After the cytotoxicity measurement at 48 h, 20 μL of CellTiter-Blue reagent (Promega, G8080) was added to each well and the plate incubated for 1 h at 37° C. before fluorescence (560Ex/590Em) was measured with a FLOUstar OPTIMA plate reader (BMG Labtech).
The first experiment was performed with HL60 and MOLM13 cell lines. Cells were expanded and when numbers were adequate (and viability higher than 90%) they were plated in 96-well plates at 2×10^4 cells/well in 50 uL of their respective media, containing 0.1% DMSO and CellTox Green reagent. Doses tested ranged from 1 μM followed by serial 1/10 dilutions until 10^−5 nM EX 1, or vehicle only. Plates were cultured and fluorescence (indicating cytotoxicity) was measured at 24 h and 48 h. After the cytotoxicity was read at 48 h, CellTiter-Blue reagent was added to each well. The readout of this assay is based on the metabolic activity of cells and it is used as surrogate marker for proliferation and/or cell viability.
The next experiment was performed with the cell lines ME1, OCI-AML3, MV4; 11 and KG1 following the same protocol as above. From the results from the previous experiment it was observed that the non-linear curve fit was very steep between 1 nM and 0.1 nM (FIGS. 1A and B); thus, for this and the subsequent experiments the drug doses were adjusted to: […], 10 nM, 1 nM, 0.75 nM, 0.5 nM, 0.25 nM, 0.1 nM, 0.01 nM and 0.001 nM. […] Cytotoxicity and proliferation (metabolic assay) were measured as above. […]

Entries after “also recorded” stand apart in the source; their conditions may differ.

As for `COc1cc(C(=O)c2c(C)oc3c(O)c(OC)ccc23)cc(OC)c1OC` [EX 1, 2-Methyl-7-hydroxy-3-(3,4,5-trimethoxybenzoyl)-6-methoxybenzofuran], the P-JNK induction entry in the data set with P-JNK^Thr183/Tyr185 is listed as “strongly induced in all cell lines; also recorded: induced in all cell lines”. Also, the “mitochondria O2.- levels” value in the data set on AML cell lines [1] (HL60 and ME1, 6 h) is “showed a decrease in mitochondria O2^·− levels”; in the data set on AML cell lines [1] (KG1) it was “did not respond to the drug treatment with any detectable changes”; in the data set on AML cell lines [1] (ME1, 24 h) it was “even greater effect observed at 24 h”; in the data set with AML cell lines [1] (MV4;11 and MOLM13, 24 h), “increased mitochondria O2^·− levels observed at 24 h only”; with AML cell lines [1] (OCI-AML3, 6 h) it was “slight decrease”; in the data set on AML cell lines [1] (OCI-AML3, 24 h), “appeared to have increased O2^·− levels”. The “cytotoxicity and CellTiter response” value with AML cell lines [2] (less sensitive cell lines ME1, OCI-AML3 and KG1) was “showed a lower cytotoxicity response”. Moreover, the “cytotoxicity and inhibitory proliferation response” value in the data set on AML cell lines [2] (more sensitive cell lines HL60, MOLM13 and MV4;11) is “reached the highest cytotoxicity and showed the largest inhibitory proliferation response”. The IC50 in the data set on AML cell lines [2] (range over six AML cell lines (MV4;11, MOLM13, HL60, KG1, ME1, OCI-AML3), 48 h, FIGS. 1A and B, read-out: IC50 doses (cytotoxicity and viability)) is 0.2 to 1.3 nM.
